From patent publication US11413261B2, “Pharmaceutical composition for treating cancer comprising lactate metal salt” (METIMEDI PHARMACEUTICALS CO., LTD, priority 2014, dated 2022) come the findings set out here.

The subject of experiment [1] is breast cancer cell lines (MCF-7 and MDA-MB231). Description: Cell migration of breast cancer cell lines. The conditions noted are these: 2.5 mM, vs untreated. It counts as cell-based. On the procedure:
A colorectal cancer cell line HCT-116 with the cell number of 4×10^5 cells was inoculated into a culture container at the center of which an ibidi culture insert having a thickness of 500 μm was placed, and treated with 2.5 mM calcium lactate and then cultured for 24 hours. Then, the insert was removed and further cultured for 12 hours to analyze migration of the cancer cells to a site where the insert was removed using a JuLi Br, Live cell analyzer (NanoEnTek Inc., South Korea) (FIG. 18). In this case, a colorectal cancer cell line cultured without treating with calcium lactate was used as a control group.
Using the same method as Example 8-1, with breast cancer cell lines (MCF-7 and MDA-MB231) instead of the colorectal cancer cell line, an effect of calcium lactate on migration of the breast cancer cell lines was examined (FIG. 19).

Experiment [2] relates to human breast cancer cell line (MCF-7) showing a resistance to Trastuzumab. Nature of the experiment: Colony-forming ability, Trastuzumab in combination with calcium lactate (6-well plates). The conditions noted are these: Trastuzumab-resistant MCF-7; 2.5 mM calcium lactate alone; vs control. Type of experiment: cell-based. From the text: Then, the colony-forming abilities of the cells were compared. In this case, a human breast cancer cell line (MCF-7) untreated with any drug was used as a control group (FIGS. 54a and 54b).

Experiment [3] concerns human colorectal cancer cell lines (HCT-116, HT-29, and DLD-1). Nature of the experiment: Colony-forming ability of colorectal cancer cell lines in solid medium. Type of experiment: cell-based. The conditions noted are these: HCT-116, HT-29, DLD-1; with increasing concentration (0.5, 1.5, 2.5 mM), 10 days. How it is done: Firstly, human colorectal cancer cell lines (HCT-116, HT-29, and DLD-1) were inoculated into solid mediums including various concentrations (0 mM, 0.5 mM, 1.5 mM, or 2.5 mM) of calcium lactate and cultured for 10 days. After the completion of the culture, the cells were immobilized and stained with hematoxylin. Then, the number of cancer cells formed into colonies was counted (FIG. 23).

Experiment [4] deals with human colorectal cancer cell lines (HT-29 and HCT-116). Description: Colony-forming ability, anticancer drug in combination with calcium lactate (6-well plates). It counts as cell-based. The conditions noted are these: 2.5 mM calcium lactate alone, vs control. On the procedure: Human colorectal cancer cell lines (HT-29 and HCT-116) with the cell number of 1×10^3 cells were seeded into an RPMI1640 medium in each of 6-well plates. After one day, the medium was replaced with fresh medium and the cells were treated with 2.5 mM calcium lactate or 1 μM, 2.5 μM, and 5 μM Imatinib alone or treated with various concentrations (1 μM, 2.5 μM, and 5 μM) of Imatinib in combination with 2.5 mM calcium lactate. Then, the colony-forming abilities of the cells were compared. In this case, human colorectal cancer cell lines (HT-29 and HCT-116) untreated with any drug were used as control groups (FIGS. 38a, 38b, 39a and 39b).
Human colorectal cancer cell lines (HT-29 and HCT-116) with the cell number of 1×10^3 cells were seeded into an RPMI1640 medium in each of 6-well plates. After one day, the medium was replaced with fresh medium and the cells were treated with 2.5 mM calcium lactate or 2.5 μM, 5 μM, and 10 μM 5-FU alone or treated with various concentrations (2.5 μM, 5 μM, and 10 μM) of 5-FU in combination with 2.5 mM calcium lactate. Then, the colony-forming abilities of the cells were compared. In this case, human colorectal cancer cell lines (HT-29 and HCT-116) untreated with any drug were used as control groups (FIGS. 40a, 40 b, 41a and 41b).

For experiment [5], the system named is PARP. Nature of the experiment: PARP protein expression in melanoma cell lines. Type of experiment: cell-based, human. The conditions noted are these: SKMEL-02 and SKMEL-28; with increasing concentration (0-10 mM), 12 hours. How it is done: Each of human melanoma cell lines (SKMEL-02 and SKMEL-28) cultured in a cancer cell culture medium (RPMI1640 medium including 10% FBS and 1% penicillin/streptomycin) at 37° C. with 5% CO2 was treated with 0 mM, 0.5 mM, 1.0 mM, 2.5 mM, 5.0 mM, or 10 mM calcium lactate for 12 hours. Then, protein expression levels of PARP expressed in the melanoma cell lines were compared (FIG. 10).

Experiment [6] relates to cancer cell. Description: Comparison of lactate delivery efficiency to a cancer cell. It counts as cell-based. The conditions noted are these: compared with sodium lactate and potassium lactate.
Experiment [7] has as its system PARP. Nature of the experiment: PARP protein expression in HCT-116 treated with calcium lactate, IS, CA alone or in combination. The conditions noted are these: 5 mM calcium lactate alone, 24 hours. It counts as cell-based, human. On the procedure: The protein expression levels of PARP expressed in the colorectal cancer cell line were compared (FIG. 9) after a human colorectal cancer cell line (HCT-116) was treated individually or in combination for 24 hours with 5 mM calcium lactate, 5-indane sulfornamide (IS) as an inhibitor of carbonic anhydrase, or cinnamic acid (CA) as an inhibitor of MCT-4 which is a pathway of lactate. In this case, an untreated cancer cell line was used as a control group.

Experiment [8] has as its system colorectal cancer cell (HT-29 or HCT-116). Nature of the experiment: Tumor volume in animal model treated with radiation and calcium lactate. It counts as in vivo, mice. On the procedure:
A colorectal cancer cell (HT-29 or HCT-116) was subcutaneously implanted into the flank of mice. The mice were bred until the colorectal cancer cell grew to about 5 mm. Then, four groups were set up; a control group untreated with calcium lactate for 30 days, an experimental group 11 (intra tumor, I.T) injected with 2.5 mM calcium lactate, an experimental group 12 (IR) irradiated with radiation of 2 Gy five times using an X-RAD 320 X-ray irradiator (300 kVp) equipped with a 2.0 mm aluminum filter, and an experimental group 13 (CaLa+IR) irradiated with radiation of 2 Gy five times and injected with 2.5 mM calcium lactate at the same time (FIG. 36).
The volumes of colorectal cancer tissues extracted from the mice of the control group or each of the experimental groups set up in Example 11-1 were measured over time and compared with each other (FIGS. 37a and 37b).

The test system of experiment [9] is human colorectal cancer cell lines (HCT-116 and HT-29). Description: Pyruvate level in cancer cells (pyruvate assay kit). Type of experiment: cell-based. The conditions noted are these: 2.5 mM, 24 hours. How it is done: Each of human colorectal cancer cell lines (HCT-116 and HT-29) with the cell number of 5×10^5 cells was treated with 2.5 mM calcium lactate for 24 hours and the cells were disrupted by ultrasonication and filtered using a 10 kDa filter so as to obtain filtrate. The obtained filtrate was applied to a pyruvate assay kit (Abcam, Cambridge, Mass.) to measure the concentration of pyruvate included in the filtrate (FIG. 12).

Consider `CC(O)C(=O)[O-].CC(O)C(=O)[O-].[Ca+2]` (stereo not shown) [calcium lactate], for which the “cell migration (metastatic capacity)” value in experiment [1] is reported as “relatively low levels of metastasis”. Further, the colony-forming ability entry is reported as “decreased” in [2] and “suppressed” in [4]. The number of colonies entry in experiment [3] was “decreased”. The “protein expression levels of PARP” value in experiment [5] and in experiment [7] was “decreased” in each case. Further, the “lactate delivery efficiency to a cancer cell” value in [6] is on record as “highest lactate delivery efficiency”. For the same compound, the growth of tumor entry is “inhibited” in experiment [8] (2.5 mM calcium lactate I.T. individually, vs control) and “inhibited to the lowest level” in [8] (2.5 mM calcium lactate in combination with radiation of 2 Gy five times). Moreover, the “pyruvate levels in the cells” value in experiment [9] is listed as “sharply increased”.
